Assay results: publication PMC4184574, “Enantioselectivity in the cytochrome P450-dependent conversion of tegafur to 5-fluorouracil in human liver microsomes” (Pharmacology Research & Perspectives, 2013)
Values joined by “and” are separate entries in the source; they are usually repeats but may differ in a detail not shown here. Equal values may be shown once.

Key:
[1] = 5-FU formation from FT enantiomers in human hepatic microsomes (kinetic analysis, formation rate); format: in vitro ADME; conditions: for Km1 / Vmax1 / CLint1: high-affinity component; for CLint1: Vmax/Km; for Km2 / Vmax2: low-affinity component; for Km / Vmax: monophasic kinetics
Method: (§1) (pooled preparations from 20 donors; Kansas City, KS). […] Insect microsomes expressing only NADPH-P450 oxidoreductase and cytochrome b5 were also used as control. These enzymes were stored at −80°C until use.
(§2) 5-FU formed from FT was subjected to extensive metabolism by dihydropyrimidine dehydrogenase (DPD) contaminating human hepatic preparations. Therefore, a potent DPD inhibitor, CDHP, was always added to avoid the unexpected loss of 5-FU (Ikeda et al. [2000]; Yamamiya et al. [2010]). Incubation mixture for hepatic microsomal metabolism contained FT, microsomes (1 mg protein/mL), 0.1 mmol/L CDHP, and an NADPH-generating system consisting of 1.3 mmol/L β-NADP^+, 3.3 mmol/L glucose-6-phosphate, 3.3 mmol/L magnesium chloride, and 0.4 units glucose-6-phosphate dehydrogenase in 100 mmol/L Tris (pH 7.4). Metabolic reaction by S9 and cytosol (each 2 mg protein/mL) was carried out in 100 mmol/L phosphate (pH 7.4) because TPase requires phosphate ions for catalyzing the reaction. In some cases, insect microsomes expressing recombinant CYP isoforms (20 pmol/mL) were added to the incubation mixtures in either 50, 100 mmol/L phosphate (pH 7.4) or 100 mmol/L Tris (pH 7.4), depending on supplier's recommendation. […] The reaction for the assay of FT metabolism was initiated by adding the substrate, following preincubation for 5 min at 37°C. […] The incubation times of microsomes, cytosol, and S9 were 15, 15, and 30 min, respectively. After centrifugation, the supernatant was collected and stored at −80°C until the determination of 5-FU. Because a small portion of FT is nonenzymatically converted to 5-FU, the content of 5-FU spontaneously formed was subtracted from total yield obtained after incubation to correct the activity. The spontaneous degradation of FT to 5-FU was evaluated using enzymes inactivated by heating them at 100°C for 5 min.
(§3) Concentration of 5-FU was determined using a LC/MS/MS system. […] The mobile phase consisted of 10 mmol/L ammonium acetate/acetonitrile 10:90 (v/v). The MS/MS analysis was performed in negative ionization mode under multiple reaction monitoring (MRM) mode, using mass transitions, m/z 128.6/41.8 for 5-FU and m/z 130.6/42.8 for ^15N2-5-FU, an internal standard (IS). […] For quantification of 5-FU, the calibration curves were linear over the range 2–1000 ng/mL.
(§4) In determining kinetic parameters, FT concentration ranged from 0.03 to 10 mmol/L. All reactions were performed in a linear range of 5-FU formation with respect to protein or CYP concentrations and incubation time. Eadie–Hofstee plot analysis was used to characterize enzyme kinetics in which kinetic parameters were estimated by fitting the data to the following equations (1) or (2): [drawing 1] (1) [drawing 2] (2) where V is 5-FU formation rate, S is FT concentration in the incubation mixture, Km1 and Km2 are affinity constants for high- and low-affinity components, respectively, and Vmax1 and Vmax2 are maximum velocities for high- and low-affinity components, respectively.

CYP1A2 = target: T1, CYP1A2 (Homo sapiens, UniProt P05177); assay: 5-FU formation from FT enantiomers by cDNA-expressed CYP1A2 (kinetics, velocity, RAF contribution); format: in vitro ADME; conditions: for CYP contribution: CYP1A2, RAF method, 30 μmol/L
T1 construct: purchased BD Gentest; host or cells: insect cells (baculovirus)
T1 sequence (P05177 2-516 limits assumed): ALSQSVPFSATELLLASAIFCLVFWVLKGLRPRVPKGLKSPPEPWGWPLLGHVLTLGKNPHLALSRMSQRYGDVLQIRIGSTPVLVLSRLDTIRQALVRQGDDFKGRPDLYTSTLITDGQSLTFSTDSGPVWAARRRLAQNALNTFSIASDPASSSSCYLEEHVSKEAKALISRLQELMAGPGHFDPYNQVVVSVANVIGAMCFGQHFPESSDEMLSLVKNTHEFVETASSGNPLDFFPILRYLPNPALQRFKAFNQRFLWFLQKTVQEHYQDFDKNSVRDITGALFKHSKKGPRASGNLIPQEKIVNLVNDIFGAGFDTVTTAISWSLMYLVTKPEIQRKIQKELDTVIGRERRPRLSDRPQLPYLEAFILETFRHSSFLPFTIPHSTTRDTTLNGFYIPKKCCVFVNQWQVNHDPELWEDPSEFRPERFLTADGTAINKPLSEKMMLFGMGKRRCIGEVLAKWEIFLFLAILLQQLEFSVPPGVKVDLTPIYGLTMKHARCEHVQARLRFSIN
Method: as §1, §2, §3, §4
(§5) The contribution of CYPn to the metabolism of R- and S-FT at their concentration of 30 μmol/L was subsequently calculated using equation (4). [drawing 4] (4) VCYPn = 5-FU formation rate in cDNA-expressed CYPn.

CYP2C19 = target: T2, CYP2C19 (Homo sapiens, UniProt P33261); assay: 5-FU formation from FT enantiomers by cDNA-expressed CYP2C19 (kinetics, velocity, RAF contribution); format: in vitro ADME; conditions: for CYP contribution: CYP2C19, RAF method, 30 μmol/L
T2 construct: purchased BD Gentest; host or cells: insect cells (baculovirus)
Method: as §1, §2, §3, §4, §5

CYP2E1 = target: T3, CYP2E1 (Homo sapiens, UniProt P05181); assay: 5-FU formation from FT enantiomers by cDNA-expressed CYP2E1 (kinetics, velocity, RAF contribution); format: in vitro ADME; conditions: for CYP contribution: CYP2E1, RAF method, 30 μmol/L; for CLint / Km / Vmax: cDNA-expressed CYP2E1
T3 construct: purchased BD Gentest; host or cells: insect cells (baculovirus)
Method: as §1, §2, §3, §4, §5

[2] = parameters: method as in Damle et al. [2001]; conditions: ref Damle et al. [2001], cited from earlier work; for maximum concentration (Cmax) / Cmax: cancer patients after oral administration of UFT; for Cmax: read-out: maximum concentration (Cmax); for area under the plasma concentration–time curve / plasma elimination half-life: cancer patients orally given FT
[3] = Mean ± SD of five human livers, total (for R-FT sum of high- and low-affinity components)
[4] = human hepatic microsomes, higher
[5] = microsomes HG32, total (for R-FT sum of high- and low-affinity components)
[6] = microsomes HH31, total (for R-FT sum of high- and low-affinity components)
[7] = microsomes HH74, total (for R-FT sum of high- and low-affinity components)
[8] = microsomes HH94, total (for R-FT sum of high- and low-affinity components)

T3 sequence (P05181 whole entry): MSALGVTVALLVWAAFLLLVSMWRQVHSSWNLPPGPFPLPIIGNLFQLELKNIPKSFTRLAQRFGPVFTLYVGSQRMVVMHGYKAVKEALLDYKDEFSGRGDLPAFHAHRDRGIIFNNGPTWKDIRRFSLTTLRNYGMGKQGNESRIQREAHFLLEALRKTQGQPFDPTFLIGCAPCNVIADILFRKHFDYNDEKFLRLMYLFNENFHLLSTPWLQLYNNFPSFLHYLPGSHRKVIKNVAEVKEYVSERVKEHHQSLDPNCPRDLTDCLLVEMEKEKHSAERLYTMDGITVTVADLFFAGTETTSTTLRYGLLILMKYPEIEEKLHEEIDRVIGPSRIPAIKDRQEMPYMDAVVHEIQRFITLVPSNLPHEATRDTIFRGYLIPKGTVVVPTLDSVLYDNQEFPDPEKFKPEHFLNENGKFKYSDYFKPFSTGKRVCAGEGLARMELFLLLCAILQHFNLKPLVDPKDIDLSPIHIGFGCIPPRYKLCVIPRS
T2 sequence (P33261 whole entry): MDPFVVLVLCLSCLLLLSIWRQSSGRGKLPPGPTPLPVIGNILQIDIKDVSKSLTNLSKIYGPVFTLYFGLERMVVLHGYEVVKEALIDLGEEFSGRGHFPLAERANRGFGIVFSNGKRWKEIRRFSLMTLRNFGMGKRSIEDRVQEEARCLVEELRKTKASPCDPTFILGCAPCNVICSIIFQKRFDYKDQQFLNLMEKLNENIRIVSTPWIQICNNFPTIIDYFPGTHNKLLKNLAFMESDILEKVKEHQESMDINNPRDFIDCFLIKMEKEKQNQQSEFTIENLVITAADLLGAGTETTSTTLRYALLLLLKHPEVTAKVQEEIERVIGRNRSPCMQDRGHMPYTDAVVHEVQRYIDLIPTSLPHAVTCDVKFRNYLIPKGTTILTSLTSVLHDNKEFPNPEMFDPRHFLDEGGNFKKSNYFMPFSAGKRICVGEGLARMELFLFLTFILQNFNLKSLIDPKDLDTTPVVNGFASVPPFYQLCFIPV

SMILES: O=c1[nH]c(=O)n([C@H]2CCCO2)cc1F [R-FT]
- Km1 ([1]; Mean ± SD of five human livers): 0.12 mmol/L and 0.12 ± 0.03 mmol/L
- Vmax1 ([1]; Mean ± SD of five human livers): 838 ± 669 pmol/min/mg
- CLint1 ([1]; Mean ± SD of five human livers): 6.2 ± 4.4 µL/min/mg
- CLint [1, 3]: 6.4 ± 4.4 µL/min/mg
- Km2 ([1]; Mean ± SD of human livers): 2.7 mmol/L and 2.7 ± 0.3 mmol/L
- Vmax2 ([1]; Mean ± SD of human livers): 613 ± 236 pmol/min/mg
- CLint (Vmax/Km) of high-affinity component compared with the low-affinity one [1, 4]: approximately 27 fold
- CLint value of R-FT relative to that of S-FT [1, 4]: 8.8 fold
- Km1 ([1]; microsomes HG32): 0.11 mmol/L
- Vmax1 ([1]; microsomes HG32): 355 pmol/min/mg
- CLint1 ([1]; microsomes HG32): 3.2 µL/min/mg
- Km2 ([1]; microsomes HG32): 3.0 mmol/L
- Vmax2 ([1]; microsomes HG32): 302 pmol/min/mg
- CLint [1, 5]: 3.3 µL/min/mg
- Km1 ([1]; microsomes HH31): 0.14 mmol/L
- Vmax1 ([1]; microsomes HH31): 1816 pmol/min/mg
- CLint1 ([1]; microsomes HH31): 13 µL/min/mg
- Km2 ([1]; microsomes HH31): 2.9 mmol/L
- Vmax2 ([1]; microsomes HH31): 859 pmol/min/mg
- CLint [1, 6]: 13 µL/min/mg
- Km1 ([1]; microsomes HH74): 0.093 mmol/L
- Vmax1 ([1]; microsomes HH74): 146 pmol/min/mg
- CLint1 ([1]; microsomes HH74): 1.6 µL/min/mg
- Km2 ([1]; microsomes HH74): 2.7 mmol/L
- Vmax2 ([1]; microsomes HH74): 709 pmol/min/mg
- CLint [1, 7]: 1.8 µL/min/mg
- Km1 ([1]; microsomes HH81): 0.16 mmol/L
- Vmax1 ([1]; microsomes HH81): 1162 pmol/min/mg
- CLint1 ([1]; microsomes HH81): 7.1 µL/min/mg
- CLint ([1]; microsomes HH81, total): 7.1 µL/min/mg
- Km1 ([1]; microsomes HH94): 0.12 mmol/L
- Vmax1 ([1]; microsomes HH94): 712 pmol/min/mg
- CLint1 ([1]; microsomes HH94): 6.1 µL/min/mg
- Km2 ([1]; microsomes HH94): 2.3 mmol/L
- Vmax2 ([1]; microsomes HH94): 583 pmol/min/mg
- CLint [1, 8]: 6.4 µL/min/mg
- contribution of the high-affinity component to the conversion to 5-FU ([1]; substrate concentration well below the Km value): over 90%
- CYP contribution (CYP1A2): 7.5%
- CLint (CYP1A2; cDNA-expressed CYP1A2): 4.9 nL min^−1 pmol^−1 CYP
- Km (CYP1A2; cDNA-expressed CYP1A2): 1100 ± 100 µM
- Vmax (CYP1A2; cDNA-expressed CYP1A2): 5.6 ± 0.3 pmol min^−1 pmol^−1 CYP
- CYP contribution (CYP2C19): 0.59%
- Km (CYP2C19; cDNA-expressed CYP2C19): > 10000 µM
- CYP contribution (CYP2E1): 4.3%
- CLint (CYP2E1): 2.3 nL min^−1 pmol^−1 CYP
- Km (CYP2E1): 3600 ± 300 µM
- Vmax (CYP2E1): 8.4 ± 0.6 pmol min^−1 pmol^−1 CYP
- maximum concentration (Cmax) [2]: 2957 ng/mL
- Cmax [2]: 14.8 µM
- area under the plasma concentration–time curve [2]: 10,800 ng h/mL
- plasma elimination half-life [2]: 2.4 h

SMILES: O=c1[nH]c(=O)n([C@@H]2CCCO2)cc1F [S-FT]
- Km ([1]; Mean ± SD of five human livers): 1600 ± 600 µM
- Vmax ([1]; Mean ± SD of five human livers): 1021 ± 692 pmol/min/mg
- CLint [1, 3]: 0.73 ± 0.53 µL/min/mg
- Km ([1]; microsomes HG32): 1400 µM
- Vmax ([1]; microsomes HG32): 468 pmol/min/mg
- CLint [1, 5]: 0.34 µL/min/mg
- Km ([1]; microsomes HH31): 1400 µM
- Vmax ([1]; microsomes HH31): 2205 pmol/min/mg
- CLint [1, 6]: 1.6 µL/min/mg
- Km ([1]; microsomes HH74): 2600 µM
- Vmax ([1]; microsomes HH74): 583 pmol/min/mg
- CLint [1, 7]: 0.23 µL/min/mg
- Km ([1]; microsomes HH81): 1100 µM
- Vmax ([1]; microsomes HH81): 915 pmol/min/mg
- CLint ([1]; microsomes HH81, total): 0.81 µL/min/mg
- Km ([1]; microsomes HH94): 1300 µM
- Vmax ([1]; microsomes HH94): 936 pmol/min/mg
- CLint [1, 8]: 0.71 µL/min/mg
- CYP contribution (CYP1A2): 4.4%
- Km (CYP1A2; cDNA-expressed CYP1A2): > 10000 µM
- CYP contribution (CYP2C19): 3.9%
- CLint (CYP2C19; cDNA-expressed CYP2C19): 0.90 nL min^−1 pmol^−1 CYP
- Km (CYP2C19; cDNA-expressed CYP2C19): 6200 ± 300 µM
- Vmax (CYP2C19; cDNA-expressed CYP2C19): 5.5 ± 0.2 pmol min^−1 pmol^−1 CYP
- CYP contribution (CYP2E1): 7.0%
- CLint (CYP2E1): 1.3 nL min^−1 pmol^−1 CYP
- Km (CYP2E1): 3700 ± 200 µM
- Vmax (CYP2E1): 4.7 ± 0.2 pmol min^−1 pmol^−1 CYP
- maximum concentration (Cmax) [2]: 3788 ng/mL
- Cmax [2]: 18.9 µM
- area under the plasma concentration–time curve [2]: 49,300 ng h/mL
- plasma elimination half-life [2]: 10.3 h
